Measurements published in patent publication US10501421B1, “Substituted benzimidazoles as modulators of Ras signaling” (VANDERBILT UNIVERSITY, priority 2017, dated 2019).
Counter-ions that a name gives are not always drawn.

What was measured:
[1] = target: Ras GEF SOS (Son of Sevenless) (Homo sapiens, UniProt Q07889); experiment: SOS-mediated nucleotide exchange on Ras (BODIPY-GDP fluorescence); type: biochemical; settings: SOS-mediated exchange of BODIPY-GDP for GTP on Ras
Description: Compounds of the present invention were tested for their ability to modify the rate at which Ras exchanges a labeled nucleotide guanosine diphosphate (GDP) analog for guanosine triphosphate (GTP). Briefly, test compounds, then GTP and the Ras GEF SOS (Son of Sevenless) are added to a buffered solution containing Ras protein loaded with BODIPY-GDP. Changes in fluoresence indicating exchange of the labeled GDP for GTP are monitored over time. Raw fluorescence data was fit to a single exponential decay function and derived rates were plotted as mean values. EC50 values were calculated by plotting mean derived rates as a function of compound concentration and fit using a four-parameter dose-response curve. This assay is performed in a method analogous to the assay disclosed in: Burns, M. C.; Sun, Q.; Daniels, R. N.; Camper, D. V.; Kennedy, J. P.; Phan, J.; Olejniczak, E. O.; Lee, T.; Waterson, A. G.; Rossanese, O. W.; Fesik, S. W. “Approach for targeting Ras with small molecules that activate SOS-mediated nucleotide exchange” Proc. Natl. Acad. Sci. 2014; 11(9): 3401-3406. PMCID: PMC3948241.

Son of Sevenless (SOS) = target: T1, Son of Sevenless (SOS) (Homo sapiens, UniProt Q07889); experiment: Binding to SOS, fluorescence polarization anisotropy (FPA) probe displacement; settings: displacement of FITC-conjugated probe (Example 285), affinity calculated from IC50
T1 sequence (Q07889 564-1049 limits assumed): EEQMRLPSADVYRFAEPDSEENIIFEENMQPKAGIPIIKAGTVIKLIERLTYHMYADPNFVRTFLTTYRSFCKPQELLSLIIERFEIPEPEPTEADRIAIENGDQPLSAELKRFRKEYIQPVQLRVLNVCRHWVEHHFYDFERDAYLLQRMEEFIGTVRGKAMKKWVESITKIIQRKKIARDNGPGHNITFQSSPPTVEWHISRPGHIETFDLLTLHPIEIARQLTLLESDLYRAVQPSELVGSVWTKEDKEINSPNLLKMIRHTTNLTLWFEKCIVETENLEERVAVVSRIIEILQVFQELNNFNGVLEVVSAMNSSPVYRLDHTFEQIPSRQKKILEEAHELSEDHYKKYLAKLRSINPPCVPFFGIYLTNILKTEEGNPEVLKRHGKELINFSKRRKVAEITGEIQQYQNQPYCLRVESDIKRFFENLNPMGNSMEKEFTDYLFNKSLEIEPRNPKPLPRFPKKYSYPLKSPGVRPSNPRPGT
Description: Compounds of the present invention were tested for their ability to bind to the Ras guanine exchange factor (GEF) Son of Sevenless (SOS). Binding to SOS was measured using a Fluorescence polarization anisotropy (FPA) assay that assesses the ability of a test compound to displace a fluorescent FITC-conjugated compound (Example 285). Briefly, the labeled probe compound is incubated with SOS in buffer. Changes in anisotropy indicative of displacement of the labeled probe for a test compound are assessed over a dose range of test compound. Data was analyzed by plotting fluorescence anisotropy values as a function of compound concentration. IC50 values were determined using a four-parameter dose-response (variable slope) and binding affinities were calculated from this IC50 value. This assay is performed in a method analogous to the assay disclosed in: Burns, M. C.; Sun, Q.; Daniels, R. N.; Camper, D. V.; Kennedy, J. P.; Phan, J.; Olejniczak, E. O.; Lee, T.; Waterson, A. G.; Rossanese, O. W.; Fesik, S. W. “Approach for targeting Ras with small molecules that activate SOS-mediated nucleotide exchange” Proc. Natl. Acad. Sci. 2014; 11(9): 3401-3406. PMCID: PMC3948241.

Chain of Ras GEF SOS (Son of Sevenless) (P01112 1-166 partner limits assumed, one chain of several): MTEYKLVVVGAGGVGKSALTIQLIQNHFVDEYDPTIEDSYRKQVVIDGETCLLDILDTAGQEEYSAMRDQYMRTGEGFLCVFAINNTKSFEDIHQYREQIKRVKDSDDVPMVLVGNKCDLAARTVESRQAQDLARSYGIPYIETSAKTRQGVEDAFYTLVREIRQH

Row | SMILES | EC50 [1] [nM] | Ki (Son of Sevenless (SOS)) [nM]
1 | C=C[C@@H](N)c1cc(C)cc2c1nc(N1CCNCC1)n2Cc1cc(C)c(F)c(C)c1 [Example 163, (R)-1-(1-(4-fluoro-3,5-dimethylbenzyl)-6-methyl-2-(piperazin-1-yl)-1H-benzo[d]imidazol-4-yl)prop-2-en-1-amine trifluoroacetate] | 1000 to 5000 | 500 to 1000
2 | CC(C)CN1CC[C@@H](C(=O)c2ccccc2)[C@@H]1c1cc(Cl)cc2c1nc(N1CCNCC1)n2Cc1ccc(F)c(Cl)c1 [Example 151, ((2R,3R)-2-(6-chloro-1-(3-chloro-4-fluorobenzyl)-2-(piperazin-1-yl)-1H-benzo[d]imidazol-4-yl)-1-isobutylpyrrolidin-3-yl)(phenyl)methanone trifluoroacetate] | 5000 to 30000 | > 5000
3 | Cc1cc(Cn2c(N3CCNCC3)nc3c(CC(=O)O)cc(Cl)cc32)cc(C)c1F [Example 310, 2-(6-chloro-1-(4-fluoro-3,5-dimethylbenzyl)-2-(piperazin-1-yl)-1H-benzo[d]imidazol-4-yl)acetic acid] | < 1000 | 500 to 1000
4 | Cc1cnc2nc(NCCN)n(Cc3ccc(F)c(C)c3)c2c1 [Example 245, N^1-(1-(4-fluoro-3-methylbenzyl)-6-methyl-1H-imidazo[4,5-b]pyridin-2-yl)ethane-1,2-diamine] | 1000 to 5000 | > 5000
5 | Cc1cc(Cn2c(NCCN)nc3c(N4CCNCC4)cc(Cl)cc32)cc(C)c1F [Example 299, N^1-(6-chloro-1-(4-fluoro-3,5-dimethylbenzyl)-4-(piperazin-1-yl)-1H-benzo[d]imidazol-2-yl)ethane-1,2-diamine] | < 1000 | < 500
6 | Cc1cc(Cn2c(N3CCNCC3)nc3c(OC4CCN(C)CC4)cccc32)ccc1F [Example 205, 1-(4-fluoro-3-methylbenzyl)-4-((1-methylpiperidin-4-yl)oxy)-2-(piperazin-1-yl)-1H-benzo[d]imidazole] | < 1000 | 1000 to 5000
7 | Cc1cc(Cn2c(NCC3CNC3)nc3c(N4CCN(C)CC4)cc(Cl)cc32)cc(C)c1F [Example 301, N-(azetidin-3-ylmethyl)-6-chloro-1-(4-fluoro-3,5-dimethylbenzyl)-4-(4-methylpiperazin-1-yl)-1H-benzo[d]imidazol-2-amine] | 1000 to 5000 | < 500
8 | CN(CCO)Cc1cc(Cl)cc2c1nc(N1CCNCC1)n2Cc1ccc(F)c(Cl)c1 [Example 134, 2-(((6-chloro-1-(3-chloro-4-fluorobenzyl)-2-(piperazin-1-yl)-1H-benzo[d]imidazol-4-yl)methyl)(methyl)amino)ethan-1-ol trifluoroacetate] | < 1000 | 500 to 1000
9 | Cc1cc(-c2ccccc2C)c2ncn(Cc3cc(C)c(F)c(C)c3)c2c1 [Example 142, 1-(4-fluoro-3,5-dimethylbenzyl)-6-methyl-4-(o-tolyl)-1H-benzo[d]imidazole] | 30000 to 100000 | > 5000
10 | Cc1cc2c(nc(N3CCNCC3)n2Cc2ccc(F)c(C)c2)c(-c2ccccc2C(C)C)n1 [Example 219, 1-(4-fluoro-3-methylbenzyl)-4-(2-isopropylphenyl)-6-methyl-2-(piperazin-1-yl)-1H-imidazo[4,5-c]pyridine] | 5000 to 30000 | > 5000
11 | Cc1cc2nc(NCCN)n(Cc3cccc(C(F)(F)F)c3)c2cc1C [Example 33, N^1-(5,6-dimethyl-1-(3-(trifluoromethyl)benzyl)-1H-benzo[d]imidazol-2-yl)ethane-1,2-diamine trifluoroacetate] | 1000 to 5000 | > 5000
12 | Cc1cc2nc(N3CCCC(N)C3)n(Cc3ccc(F)c(Cl)c3)c2cc1C (centres unmarked) [Example 290, 1-(1-(3-chloro-4-fluorobenzyl)-5,6-dimethyl-1H-benzo[d]imidazol-2-yl)piperidin-3-amine] | 1000 to 5000 | 1000 to 5000
13 | Cc1cc(Cn2c(NCCN)nc3c(N4CCN(C)CC4)cc(Cl)cc32)cc(C)c1F [Example 300, N^1-(6-chloro-1-(4-fluoro-3,5-dimethylbenzyl)-4-(4-methylpiperazin-1-yl)-1H-benzo[d]imidazol-2-yl)ethane-1,2-diamine] | < 1000 | < 500
14 | CN(C)CCn1nccc1-c1cc(Cl)cc2c1nc(N1CCNCC1)n2Cc1ccc(F)c(Cl)c1 [Example 175, 2-(5-(6-chloro-1-(3-chloro-4-fluorobenzyl)-2-(piperazin-1-yl)-1H-benzo[d]imidazol-4-yl)-1H-pyrazol-1-yl)-N,N-dimethylethan-1-amine trifluoroacetate] | < 1000 | 500 to 1000
15 | Cc1cc(Cn2c(NCCN)nc3c(C4=CCNCC4)cc(Cl)cc32)cc(C)c1F [Example 303, N^1-(6-chloro-1-(4-fluoro-3,5-dimethylbenzyl)-4-(1,2,3,6-tetrahydropyridin-4-yl)-1H-benzo[d]imidazol-2-yl)ethane-1,2-diamine] | < 1000 | < 500
16 | O=C(O)Cc1cc(Cl)cc2c1nc(N1CCNCC1)n2Cc1ccc(F)c(Cl)c1 [Example 311, 2-(6-chloro-1-(3-chloro-4-fluorobenzyl)-2-(piperazin-1-yl)-1H-benzo[d]imidazol-4-yl)acetic acid] | < 1000 | 1000 to 5000
17 | Fc1ccc(Cn2c(N3CCNCC3)nc3c(-c4cccnc4OCc4ccccc4)cccc32)cc1Cl [Example 266, 1-[(3-chloro-4-fluorophenyl)methyl]-4-(2-phenylmethoxypyridin-3-yl)-2-piperazin-1-ylbenzimidazole] | 5000 to 30000 | > 5000
18 | Cc1cc(Cn2c(N3CCNCC3)nc3c(-c4ccnn4-c4ccc(C(C)(C)C)cc4)cc(Cl)cc32)cc(C)c1F [Example 178, 4-(1-(4-(tert-butyl)phenyl)-1H-pyrazol-5-yl)-6-chloro-1-(4-fluoro-3,5-dimethylbenzyl)-2-(piperazin-1-yl)-1H-benzo[d]imidazole trifluoroacetate] | 5000 to 30000 | > 5000
19 | Cc1cc(NCCN2CCOCC2)c2nc(N3CCNCC3)n(Cc3cc(C)c(F)c(C)c3)c2c1 [Example 193, 1-(4-fluoro-3,5-dimethylbenzyl)-6-methyl-N-(2-morpholinoethyl)-2-(piperazin-1-yl)-1H-benzo[d]imidazol-4-amine trifluoroacetate] | 1000 to 5000 | 500 to 1000
20 | CC(C)c1ccc(-n2nccc2-c2cc(Cl)cc3c2nc(N2CCNCC2)n3Cc2ccc(F)c(Cl)c2)cc1 [Example 169, 6-chloro-1-(3-chloro-4-fluorobenzyl)-4-(1-(4-isopropylphenyl)-1H-pyrazol-5-yl)-2-(piperazin-1-yl)-1H-benzo[d]imidazole trifluoroacetate] | 1000 to 5000 | > 5000
21 | Cc1cc2nc(NC3CCNC3)n(Cc3ccc(F)c(Cl)c3)c2cc1C (centres unmarked) [Example 293, 1-(3-chloro-4-fluorobenzyl)-5,6-dimethyl-N-(pyrrolidin-3-yl)-1H-benzo[d]imidazol-2-amine] | 1000 to 5000 | 1000 to 5000
22 | COc1ccc(-c2nc(C)cc3c2nc(N2CCNCC2)n3Cc2ccc(F)c(C)c2)cc1OC [Example 230, 4-(3,4-dimethoxyphenyl)-1-(4-fluoro-3-methylbenzyl)-6-methyl-2-(piperazin-1-yl)-1H-imidazo[4,5-c]pyridine] | 5000 to 30000 | > 5000
23 | Cc1cc2c(nc(N3CCNCC3)n2Cc2cc(C)c(F)c(C)c2)c(CCN)c1C [Example 102, 2-(1-(4-fluoro-3,5-dimethylbenzyl)-5,6-dimethyl-2-(piperazin-1-yl)-1H-benzo[d]imidazol-4-yl)ethan-1-amine trifluoroacetate] | 1000 to 5000 | > 5000
24 | COC(=O)c1cnn(CC(C)C)c1-c1cc(C)cc2c1nc(N1CCNCC1)n2Cc1ccc(F)c(Cl)c1 [Example 179, methyl 5-(1-(3-chloro-4-fluorobenzyl)-6-methyl-2-(piperazin-1-yl)-1H-benzo[d]imidazol-4-yl)-1-isobutyl-1H-pyrazole-4-carboxylate] | – | 500 to 1000
